Measured values: patent US20250099383A1, “COMPOSITIONS AND METHODS FOR DELIVERY OF NUCLEIC ACIDS” (Poseida Therapeutics, Inc., priority 2022, published 2025)

Assay: Physical characteristics of LNPs (particle size, PDI)
Type: physicochemical
Settings: for PDI DNA / Particle Size (nm) DNA: LNP with Fluc DNA, compound/DOPE/Cholesterol/DMG-PEG2000 38/50/10.0/2.0, Lipid:DNA 45:1 (w/w); for PDI RNA / Particle Size (nm) RNA: LNP with Fluc mRNA, compound/DOPE/Cholesterol/DMG-PEG2000 41.44/45.85/10/2.7, Lipid:RNA 40:1 (w/w)
Experimental: LNP compositions of the present disclosure comprising exemplary compounds of Formula (I) were prepared by combining various percentages of an exemplary compound of Formula (I), the phospholipid DOPE, the structural lipid cholesterol (Chol) and 1,2-dimyristoyl-sn-glycerol methoxypolyethylene glycol (DMG-PEG2000; Avanti Polar Lipids, Alabaster, Alabama, USA).
Individual 25 mg/ml stock solutions were prepared by solubilizing the lipids in 200-proof HPLC-grade ethanol and stock solutions were stored at −80° C. until formulated. At the time of formulation, the lipid stock solutions were briefly allowed to equilibrate to room temp and then placed on a hot plate maintained at a temperature range of 50-55° C.
A 1 mg/ml solution of the desired mRNA or DNA to be incorporated into the LNPs was added to 150 mM sodium acetate buffer (pH 5.2) to form a stock solution and kept on ice. The aqueous mRNA or DNA was then added to the lipids as shown in Table 4 or 5 and hand-mixed vigorously with a single channel pipettor.
The resultant mRNA or DNA LNP compositions were then transferred to a Repligen Float-A-Lyzer dialysis device-having a molecular weight cut off (MWCO) of 8-10 kDa (Spectrum Chemical Mfg. Corp, CA, USA) and processed by dialysis against phosphate buffered saline (PBS) (dialysate: dialysis buffer volume at least 1:200 v/v), pH 7.4 overnight at 4° C. (or alternatively room temperature for at least 4 hours), to remove the 25% ethanol and achieve a complete buffer exchange. In some experiments the LNPs were further concentrated by in an Amicon® Ultra-4 centrifugal filter unit, MWCO-30 kDa (Millipore Sigma, USA) spun at ˜4100 x g in an ultracentrifuge. The mRNA and DNA LNPs were then stored at 4° C. until further use.
LNP compositions of the present disclosure comprising mRNA or DNA encoding firefly luciferase (hereafter “Fluc”; TriLink) and COMPOUNDS 5-49 were prepared as described in Example 61 by combining one of COMPOUNDS 5-49, the phospholipid DOPE, the structural lipid cholesterol (Chol) and 1,2-dimyristoyl-sn-glycerol methoxypolyethylene glycol (DMG-PEG2000) in the percentages presented in Tables 6 and 7:
The physical characteristics of the resulting LNPs were analyzed.
A 1 mg/ml solution of the 5′-CleanCap--fLuciferase mRNA (TriLink Biotech) to be incorporated into the LNPs was added to 150 mM sodium acetate buffer (pH 5.2) to form a stock solution and kept on ice. The lipid phase was mixed with the aqueous mRNA phase inside a microfluidic chip using a NanoAssemblr® instrument (Precision Nanosystems, Vancouver, BC, Canada) according to the manufacturer's instructions to form LNP compositions comprising encapsulated mRNAs.
The average particle size diameter of the LNPs was approximately 75-150 nm.

SMILES	PDI DNA	Particle Size (nm) DNA [nm]	PDI RNA	Particle Size (nm) RNA [nm]
CC(C)CCCC1CCC(C(=O)OCCOC(=O)CCN(CCC(=O)OCCOC(=O)C2CCC(CCCC(C)C)CC2)CC(C)N(CCC(=O)OCCOC(=O)C2CCC(CCCC(C)C)CC2)CCC(=O)OCCOC(=O)C2CCC(CCCC(C)C)CC2)CC1 (centres unmarked) [Compound 28]	0.12	224.7	0.027	254.2
CC(C)=CCCC1=CCC(C(=O)OCCN(CCOC(=O)C2CC=C(CCC=C(C)C)CC2)CCOC(=O)C2CC=C(CCC=C(C)C)CC2)CC1 (centres unmarked) [Compound 48]	0.202	291.3	0.088	324.9
CCCCN(CCOC(=O)C1CC=C(CCC=C(C)C)CC1)CCOC(=O)C1CC=C(CCC=C(C)C)CC1 (centres unmarked) [Compound 44]	0.102	270	0.09	329
CC(C)=CCC/C(C)=C/CCC1=CCC(C(=O)OCCN(CCOC(=O)C2CC=C(CC/C=C(\C)CCC=C(C)C)CC2)C(C)(C)C)CC1 (centres unmarked) [Compound 35]	0.129	298.2	0.149	364.7
CC(C)=CCC/C(C)=C/CCC1=CCC(C(=O)OCCOC(=O)CCN(CCCCCCN(CCC(=O)OCCOC(=O)C2CC=C(CC/C=C(\C)CCC=C(C)C)CC2)CCC(=O)OCCOC(=O)C2CC=C(CC/C=C(\C)CCC=C(C)C)CC2)CCC(=O)OCCOC(=O)C2CC=C(CC/C=C(\C)CCC=C(C)C)CC2)CC1 (centres unmarked) [Compound 7]	0.221	299.7	0.099	441.0
CC(C)CCCC1CCC(C(=O)OCCOC(=O)CCN(CCC(=O)OCCOC(=O)C2CCC(CCCC(C)C)CC2)CCN2CCCCC2)CC1 (centres unmarked) [Compound 26]	0.151	162.1	0.202	169.4
CC(C)CCCC(C)CCCC1CCC(C(=O)OCCOC(=O)CCN(CCCCCCN(CCC(=O)OCCOC(=O)C2CCC(CCCC(C)CCCC(C)C)CC2)CCC(=O)OCCOC(=O)C2CCC(CCCC(C)CCCC(C)C)CC2)CCC(=O)OCCOC(=O)C2CCC(CCCC(C)CCCC(C)C)CC2)CC1 (centres unmarked) [Compound 14]	0.219	348.8	0.104	334.8
CC(C)CCCC1CCC(C(=O)OCCOC(=O)CCN(CCCCCCN(CCC(=O)OCCOC(=O)C2CCC(CCCC(C)C)CC2)CCC(=O)OCCOC(=O)C2CCC(CCCC(C)C)CC2)CCC(=O)OCCOC(=O)C2CCC(CCCC(C)C)CC2)CC1 (centres unmarked) [Compound 27]	0.177	253.9	0.149	293.9
CC(C)=CCCC1=CCC(C(=O)OCCOC(=O)CCN(CCC(=O)OCCOC(=O)C2CC=C(CCC=C(C)C)CC2)CCN(CCN(CCC(=O)OCCOC(=O)C2CC=C(CCC=C(C)C)CC2)CCC(=O)OCCOC(=O)C2CC=C(CCC=C(C)C)CC2)CCN(CCC(=O)OCCOC(=O)C2CC=C(CCC=C(C)C)CC2)CCC(=O)OCCOC(=O)C2CCC(CCC=C(C)C)CC2)CC1 (centres unmarked) [Compound 24]	0.294	353.7	0.106	314.9
CC(C)=CCCC1=CCC(C(=O)OCCN(CCO)CCOC(=O)C2CC=C(CCC=C(C)C)CC2)CC1 (centres unmarked) [Compound 49]	0.104	308.7	0.045	245.3
CC(C)CCCC1CCC(C(=O)OCCOC(=O)CCN(CCCN(C)C)CCC(=O)OCCOC(=O)C2CCC(CCCC(C)C)CC2)CC1 (centres unmarked) [Compound 25]	0.227	188.5	0.143	177.9
CCCCN(CCOC(=O)C1CC=C(CC/C=C(\C)CCC=C(C)C)CC1)CCOC(=O)C1CC=C(CC/C=C(\C)CCC=C(C)C)CC1 (centres unmarked) [Compound 34]	0.128	290.2	0.127	386.4
CC(C)=CCC/C(C)=C/CCC1=CCC(C(=O)OCCOC(=O)CN(C)CC(=O)OCCOC(=O)C2CC=C(CC/C=C(\C)CCC=C(C)C)CC2)CC1 (centres unmarked) [Compound 37]	0.165	337.2	0.091	356.2
CC(C)=CCCC1=CCC(C(=O)OCCOC(=O)CN(C)CC(=O)OCCOC(=O)C2CC=C(CCC=C(C)C)CC2)CC1 (centres unmarked) [Compound 47]	0.223	357.6	0.122	363.7
CC(C)=CCC/C(C)=C/CCC1=CCC(C(=O)OCCOC(=O)CCN(CCC(=O)OCCOC(=O)C2CC=C(CC/C=C(\C)CCC=C(C)C)CC2)CCN2CCCCC2)CC1 (centres unmarked) [Compound 6, (E)-((3,3′-((2-(piperidin-1-yl)ethyl)azanediyl)bis(propanoyl))bis(oxy)) bis(ethane-2,1-diyl)bis(4-((E)-4,8-dimethylnona-3,7-dien-1-yl)cyclohex-3-enecarboxylate)]	0.154	167	0.260	202.2
CC(C)=CCC/C(C)=C/CCC1=CCC(C(=O)OCCN2CCN(CCOC(=O)C3CC=C(CC/C=C(\C)CCC=C(C)C)CC3)CC2)CC1 (centres unmarked) [Compound 36]	0.091	286.1	0.09	260.6
CC(C)=CCCC1=CCC(C(=O)OCCOC(=O)CCN(CCC(=O)OCCOC(=O)C2CC=C(CCC=C(C)C)CC2)CC(C)N(CCC(=O)OCCOC(=O)C2CC=C(CCC=C(C)C)CC2)CCC(=O)OCCOC(=O)C2CC=C(CCC=C(C)C)CC2)CC1 (centres unmarked) [Compound 21]	0.206	268.3	0.102	296.9
CC(C)CCCC(C)CCCC1CCC(C(=O)OCCOC(=O)CCN(CCC(=O)OCCOC(=O)C2CCC(CCCC(C)CCCC(C)C)CC2)CC(C)N(CCC(=O)OCCOC(=O)C2CCC(CCCC(C)CCCC(C)C)CC2)CCC(=O)OCCOC(=O)C2CCC(CCCC(C)CCCC(C)C)CC2)CC1 (centres unmarked) [Compound 15]	0.183	297.6	0.115	362.5
CC(C)=CCC/C(C)=C/CCC1=CCC(C(=O)OCCN(CCOC(=O)C2CC=C(CC/C=C(\C)CCC=C(C)C)CC2)CCOC(=O)C2CC=C(CC/C=C(\C)CCC=C(C)C)CC2)CC1 (centres unmarked) [Compound 38]	0.208	398.8	0.128	359.7
CC(C)=CCC/C(C)=C/CCC1=CCC(C(=O)OCCN(C)CCOC(=O)C2CC=C(CC/C=C(\C)CCC=C(C)C)CC2)CC1 (centres unmarked) [Compound 32]	0.09	289.2	0.108	269.6
